Square brackets hold non-standard residues; d marks the D form. Peptide text beside a SMILES is read from it. ξ: configuration not given here. Ile(3ξ) = CCC(C)[C@H](N)C(=O)O; Thr(3ξ) = CC(O)[C@H](N)C(=O)O; Nle = CCCC[C@H](N)C(=O)O
System: patients with SBS-IF
Assay: Phase 2 placebo-controlled crossover trial in SBS-IF patients (Example 5): urine output, urine sodium, PS volume, oral fluid intake, hydration parameters, plasma L-citrulline, body composition
Format: in vivo, human
Description: The following non-limiting example describes results from a Phase 2 clinical trial in which subjects with SBS-IF were treated with the apraglutide formulations of the present disclosure. This Phase 2 trial investigated the safety and efficacy of 5 and 10 mg apraglutide in patients with SBS-IF.
Eight adult patients with SBS-IF were treated with apraglutide compositions of the present disclosure according to Table 6. Briefly, patients with SBS-IF were administered 5 mg apraglutide of the present disclosure or placebo once a week for four weeks. The patients were then administered 10 mg apraglutide of the present disclosure once a week for four weeks. Additionally, there was a washout period of 6-10 weeks between treatments.
The trial described in Example 5 was a double-blind, crossover, randomized, placebo-controlled, phase 2 trial followed by an additional treatment period in an open-label regimen. Eight adult patients (aged ≥18 to ≤80 years) with SBS-IF were enrolled in the trial. Patient eligibility was assessed during a screening visit. The main inclusion criteria were: Patients with SBS secondary to surgical resection of the small bowel with a jejuno- or ileostomy, at least 6 months since last bowel resection, a fecal output of at least 1500 g/day as recorded within the last 18 months, and PS-infusions≥3 times per week for ≥12 months according to the patient's medical record. Patients were excluded, if they had clinical signs of activity in inflammatory bowel disease, a history of cancer within ≤5 years or an inadequate hepatic, kidney, or heart function. Patients were also excluded, if they had received native GLP-2 or a GLP-2 analogue within the last 3 months.
The procedures during each treatment period were consistent.
Efficacy assessments were performed for each treatment period of 29 days. Patients received a paper diary for recording PS volume administration, urine collections and oral fluid intakes at specific time points. Patients performed home 48-hour urine collections at baseline (day −2 to 1), immediately after first treatment injection (day 1 to 3), and at the end of the treatment period (day 27-29, […] after the fourth administration of the trial drug). Urine was collected by the patient in a urine container with volume markings and 48-hour urine volumes were reported in the diary. After completing the 48-hour collection, patients transferred approximately 100 mL of urine from the container to a sample which was delivered at the next patient visit. The amount of sodium excreted per 48 hours was then calculated as the concentration of sodium in the sample multiplied by the total volume of urine collected. During each urine collection, weekly PS volume and content and daily oral fluid intake were kept constant. Since they were kept constant, increases in urine volume were a sign of increased fluid absorption. […] Patients were to adhere to their drinking menu during each urine collection and the concomitant 48-hour oral fluid intake was reported in the diary during each urine collection.
On day 20-22, patients were informed to record their spontaneous oral fluid intake during 48 hours. This measurement was included to investigate whether increased intestinal absorption was associated with a decrease in their spontaneous oral fluid intake.
Between day 4 and 24, PS volume reductions were allowed if deemed clinically necessary by the investigator. […] PS volume reductions were assessed during day 20-22. Patients returned to their baseline PS volume and content during the end of the treatment urine collection (day 27-29). Concomitant medications including proton-pump inhibitors, loperamide, and opiates were kept unchanged and stable throughout the trial. If necessary, adjustments could be made in the drinking menu and prescribed PS volume and content between treatment periods based on discussions between the patient and the investigator.
Body weight was measured using a levelled platform scale. […]

[1] = 5 mg vs 10 mg, Part A+B, day 1-3 after first injection
[2] = 5 mg vs 10 mg, Part A+B, day 20-22
[3] = 5 mg vs 10 mg, Part A+B, day 27-29
[4] = 5 mg vs 10 mg, Part A+B, end of treatment
[5] = 5 mg vs placebo, Part A+B, day 1-3 after first injection
[6] = 5 mg vs placebo, Part A+B, day 20-22
[7] = 5 mg vs placebo, Part A+B, day 27-29
[8] = 5 mg vs placebo, Part A+B, day 27-29, listed as Apraglutide
[9] = 5 mg vs placebo, Part A+B, end of treatment

CCCC[C@H](NC(=O)[C@H](CCC(=O)O)NC(=O)[C@H](CC(=O)O)NC(=O)[C@H](CO)NC(=O)[C@H](Cc1ccccc1)NC(=O)[C@H](CO)NC(=O)CNC(=O)[C@H](CC(=O)O)NC(=O)CNC(=O)[C@@H](N)Cc1c[nH]cn1)C(=O)N[C@H](Cc1ccccc1)C(=O)N[C@H](C(=O)N[C@H](C(=O)N[C@@H](CC(C)C)C(=O)N[C@@H](CC(=O)O)C(=O)N[C@@H](CC(C)C)C(=O)N[C@@H](CC(C)C)C(=O)N[C@@H](C)C(=O)N[C@@H](C)C(=O)N[C@@H](CCCNC(=N)N)C(=O)N[C@@H](CC(=O)O)C(=O)N[C@@H](Cc1ccccc1)C(=O)N[C@H](C(=O)N[C@@H](CC(N)=O)C(=O)N[C@@H](Cc1c[nH]c2ccccc12)C(=O)N[C@@H](CC(C)C)C(=O)N[C@H](C(=O)N[C@@H](CCC(N)=O)C(=O)N[C@H](C(=O)N[C@@H](CCCCN)C(=O)N[C@H](C(=O)N[C@H](C(=O)N[C@@H](CC(=O)O)C(N)=O)C(C)O)C(C)CC)C(C)O)C(C)CC)C(C)CC)C(C)CC)C(C)O (stereo partly drawn) [apraglutide, L-histidyl-glycyl-L-aspartyl-glycyl-L-seryl-L-phenylalanyl-L-seryl-L-aspartyl-L-glutamyl-L-norleucyl-D-phenylalanyl-L-threonyl-Lisoleucyl-L-leucyl-L-aspartyl-L-leucyl-L-leucyl-L-alanyl-L-alanyl-L-arginyl-L-aspartyl-L-phenylalanyl-L-isoleucyl-L-asparaginyl-Ltryptophanyl-L-leucyl-L-isoleucyl-L-glutaminyl-L-threonyl-L-lysyl-L-isoleucyl-L-threonyl-Laspartic acid amide] (H-HGDGSFSDE[Nle][dF][Thr(3ξ)][Ile(3ξ)]LDLLAARDF[Ile(3ξ)]NWL[Ile(3ξ)]Q[Thr(3ξ)]K[Ile(3ξ)][Thr(3ξ)]D-NH2)
Patients with increased relative urine volume output compared to placebo (exceeding 10%) (5 mg): 6 out of 8 | Absolute urine output, adjusted mean change from baseline [1]: −26 (−462 to 409); mL/day | Relative urine output, adjusted mean change from baseline [1]: −12 (−43 to 19); % | Urine sodium excretion (%), adjusted mean change from baseline [1]: −43(−149 to 63); % | Urine sodium excretion, adjusted mean change from baseline [1]: −1 (−22 to 20); mmol/day | Oral fluid intake, adjusted mean change from baseline [2]: −119 (−396 to 157); mL/day | PS volume, adjusted mean change from baseline [2]: −380 (−851 to 91); mL/day | Relative PS volume, adjusted mean change from baseline [2]: −15 (−38 to 9); % | Relative oral fluid intake, adjusted mean change from baseline [2]: −7 (−17 to 3); % | Absolute urine output, adjusted mean change from baseline [3]: 84 (−514 to 682); mL/day | Relative urine output, adjusted mean change from baseline [3]: −14 (−51 to 23); % | Urine sodium excretion (%), adjusted mean change from baseline [3]: 266 (−266 to 798); % | Urine sodium excretion, adjusted mean change from baseline [3]: 32 (−37 to 101); mmol/day | Albumin, adjusted mean change from baseline [4]: 1.0 (−0.8 to 2.9); g/L | Aldosterone, adjusted mean change from baseline [4]: −151 (−3,570 to 3,268); pmol/L | Body weight, adjusted mean change from baseline [4]: −0.6 (−2.4 to 1.3); kg | Bone mineral content, adjusted mean change from baseline [4]: 12 (−57 to 82); g | CO2 total, adjusted mean change from baseline [4]: 1.0 (−1.4 to 3.4); mmol/L | Creatinine, adjusted mean change from baseline [4]: 4.6 (−12.3 to 21.5); umol/L | Fat body mass, adjusted mean change from baseline [4]: −1.44 (−2.92 to 0.04); kg | Hematocrit, adjusted mean change from baseline [4]: −0.4 (−1.2 to 0.4); vol/fr | Lean body mass, adjusted mean change from baseline [4]: 0.12 (−3.00 to 3.24); kg | Plasma L-citrulline, adjusted mean change from baseline [4]: −3.6 (−19.8 to 12.6); μmol/L | Protein, adjusted mean change from baseline [4]: −0.3 (−4.5 to 3.9); g/L | Relative body weight, adjusted mean change from baseline [4]: −1 (−4 to 2); % | Relative bone mineral content, adjusted mean change from baseline [4]: 0 (−3 to 3); % | Relative fat body mass, adjusted mean change from baseline [4]: −7 (−16 to 1); % | Relative lean body mass, adjusted mean change from baseline [4]: −0 (−8 to 7); % | Relative plasma L-citrulline, adjusted mean change from baseline [4]: −23 (−74 to 29); % | Urea, adjusted mean change from baseline [4]: 0.3 (−1.3 to 1.9); mmol/L | Fluid composite effect, estimated difference between the two doses (5 mg vs 10 mg, post-hoc, Part A+B): 594 | Absolute urine output, adjusted mean change from baseline [5]: −38 (−456 to 381); mL/day | Relative urine output, adjusted mean change from baseline [5]: 6 (−24 to 35); % | Urine sodium excretion (%), adjusted mean change from baseline [5]: 65 ( −36 to 166); % | Urine sodium excretion, adjusted mean change from baseline [5]: 3 (−17 to 23); mmol/day | PS volume, adjusted mean change from baseline [6]: −89 (−543 to 366); mL/day | Relative PS volume, adjusted mean change from baseline [6]: −13 (−36 to 9); % | Relative oral fluid intake, adjusted mean change from baseline [6]: −9 (−18 to 1); % | Absolute urine output, adjusted mean change from baseline [7]: 711 (132 to 1,289); mL/day | Relative urine output, adjusted mean change from baseline [7]: 48 (12 to 84); % | Urine sodium excretion (%), adjusted mean change from baseline [7]: 166 (−342 to 675); % | Urine sodium excretion, adjusted mean change from baseline [7]: 56 (−10 to 123); mmol/day | Absolute urine output, adjusted mean change from baseline [8]: 711 mL/day | Relative urine output, adjusted mean change from baseline [8]: 48% | Urine sodium excretion, adjusted mean change from baseline [8]: 56 mmol/day | Albumin, adjusted mean change from baseline [9]: −0.0 (−1.8 to 1.8); g/L | Body weight, adjusted mean change from baseline [9]: 1.9 (0.1 to 3.7); kg | Bone mineral content, adjusted mean change from baseline [9]: −4 (−73 to 66); g | CO2 total, adjusted mean change from baseline [9]: 0.3 (−2.0 to 2.6); mmol/L | Creatinine, adjusted mean change from baseline [9]: −9.7(−25.8 to 6.4); umol/L | Fat body mass, adjusted mean change from baseline [9]: 1.77 (0.29 to 3.24); kg | Hematocrit, adjusted mean change from baseline [9]: 0.6 (−0.2 to1.4); vol/fr | Lean body mass, adjusted mean change from baseline [9]: 0.64 (−2.49 to 3.77); kg | Plasma L-citrulline, adjusted mean change from baseline [9]: 17.6 (2.0 to 33.2); μmol/L | Protein, adjusted mean change from baseline [9]: −0.4 (−4.2 to 3.4); g/L
